Experiment [1] deals with T1, Nicotinic acetylcholine receptor alpha6/alpha3/beta4 (Rattus norvegicus, UniProt P04757+P12392+P43143). In words: Inhibition of rat alpha6/alpha3beta4 nAChR expressed in Stage V-VI Xenopus laevis Oocytes assessed as inhibition of acetylcholine-induced current in presence of acetylcholine by electrophysiological recording. Format: cell-based, Oocyte.
Experiment [2] addresses Nicotinic acetylcholine receptor alpha6/alpha3/beta4 (Rattus norvegicus) (UniProt P04757+P12392+P43143). Kind of experiment: Inhibition of rat alpha6/alpha3beta4 nAChR expressed in Stage V-VI Xenopus laevis Oocytes assessed as inhibition of acetylcholine-induced current by measuring recovery time at 10 uM preincubated with compound for 5 mins followed by washout in presence of acetylcholine by electrophysiological recording. Format: cell-based. The conditions noted are these: Oocyte.

The target of experiment [3] is T1, Nicotinic acetylcholine receptor alpha6/alpha3/beta4. Kind of experiment: Inhibition of rat alpha6/alpha3beta4 nAChR expressed in Xenopus Oocytes in presence of acetylcholine by Voltage-clamp recording. In kind it is cell-based.
Experiment [4] is filed under the species Rattus norvegicus. Kind of experiment: Selectivity ratio of IC50 for rat alpha6/alpha3beta4 nAChR expressed in Stage V-VI Xenopus laevis oocytes in presence of acetylcholine to IC50 for rat alpha3beta4 nAChR expressed in Stage V-VI Xenopus laevis Oocytes in presence of acetylcholine by electrophysiological recording. In kind it is cell-based.
Experiment [5] deals with Neuronal acetylcholine receptor; alpha2/beta2 (Rattus norvegicus, UniProt P12389+P12390). Kind of experiment: Inhibition of rat alpha2/beta2 nAChR expressed in Stage V-VI Xenopus laevis Oocytes assessed as inhibition of acetylcholine-induced current in presence of acetylcholine by electrophysiological recording. In kind it is cell-based, Oocyte.
In experiment [6] the target is Neuronal acetylcholine receptor; alpha2/beta4 (Rattus norvegicus, UniProt P12389+P12392). In words: Inhibition of rat alpha2/beta4 nAChR expressed in Stage V-VI Xenopus laevis Oocytes assessed as inhibition of acetylcholine-induced current in presence of acetylcholine by electrophysiological recording. Format: cell-based, Oocyte.
Experiment [7] concerns the target Neuronal acetylcholine receptor; alpha3/beta2 (Rattus norvegicus, UniProt P04757+P12390). Kind of experiment: Inhibition of rat alpha3/beta2 nAChR expressed in Stage V-VI Xenopus laevis Oocytes assessed as inhibition of acetylcholine-induced current in presence of acetylcholine by electrophysiological recording. Format: cell-based, Oocyte.
Experiment [8] deals with Neuronal acetylcholine receptor; alpha3/beta4 (Rattus norvegicus, UniProt P04757+P12392). In words: Inhibition of rat alpha3/beta4 nAChR expressed in Stage V-VI Xenopus laevis Oocytes assessed as inhibition of acetylcholine-induced current in presence of acetylcholine by electrophysiological recording. In kind it is cell-based, Oocyte.
Sequence of Neuronal acetylcholine receptor; alpha3/beta4 (P04757 whole entry): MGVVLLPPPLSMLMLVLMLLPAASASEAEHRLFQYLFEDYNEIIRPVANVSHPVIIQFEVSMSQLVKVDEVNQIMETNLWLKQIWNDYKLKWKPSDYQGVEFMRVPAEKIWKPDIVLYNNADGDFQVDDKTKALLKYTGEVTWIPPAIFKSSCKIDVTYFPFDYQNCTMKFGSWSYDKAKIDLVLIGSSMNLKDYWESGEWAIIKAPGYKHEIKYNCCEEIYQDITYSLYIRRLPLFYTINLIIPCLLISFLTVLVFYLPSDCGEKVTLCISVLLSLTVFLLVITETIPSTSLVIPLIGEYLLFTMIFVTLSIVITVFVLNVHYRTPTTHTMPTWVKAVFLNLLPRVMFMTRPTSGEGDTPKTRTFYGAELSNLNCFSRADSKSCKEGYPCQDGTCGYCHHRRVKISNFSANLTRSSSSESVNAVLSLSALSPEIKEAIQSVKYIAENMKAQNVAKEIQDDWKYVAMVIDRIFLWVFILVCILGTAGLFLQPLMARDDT
Sequence of Neuronal acetylcholine receptor; alpha3/beta4 (P12392 whole entry): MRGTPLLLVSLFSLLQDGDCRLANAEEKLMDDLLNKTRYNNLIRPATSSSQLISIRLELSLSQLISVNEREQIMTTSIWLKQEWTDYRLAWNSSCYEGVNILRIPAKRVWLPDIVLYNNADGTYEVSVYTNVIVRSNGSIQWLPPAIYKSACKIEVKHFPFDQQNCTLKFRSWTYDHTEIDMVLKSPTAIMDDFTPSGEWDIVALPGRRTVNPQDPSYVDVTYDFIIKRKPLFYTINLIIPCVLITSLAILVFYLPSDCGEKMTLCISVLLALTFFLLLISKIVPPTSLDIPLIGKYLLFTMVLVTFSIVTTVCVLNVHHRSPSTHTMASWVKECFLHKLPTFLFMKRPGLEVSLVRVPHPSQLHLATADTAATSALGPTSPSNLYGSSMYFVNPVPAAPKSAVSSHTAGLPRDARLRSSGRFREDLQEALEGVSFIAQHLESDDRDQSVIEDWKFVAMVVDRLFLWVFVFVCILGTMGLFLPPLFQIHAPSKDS
The target in experiment [9] is Neuronal acetylcholine receptor; alpha4/beta2 (Rattus norvegicus, UniProt P09483+P12390). In words: Inhibition of rat alpha4/beta2 nAChR expressed in Stage V-VI Xenopus laevis Oocytes assessed as inhibition of acetylcholine-induced current in presence of acetylcholine by electrophysiological recording. In kind it is cell-based, Oocyte.
Experiment [10] deals with Neuronal acetylcholine receptor; alpha4/beta4 (Rattus norvegicus, UniProt P09483+P12392). In words: Inhibition of rat alpha4/beta4 nAChR expressed in Stage V-VI Xenopus laevis Oocytes assessed as inhibition of acetylcholine-induced current in presence of acetylcholine by electrophysiological recording. Format: cell-based, Oocyte.
For experiment [11], the target named is Neuronal acetylcholine receptor subunit alpha-7 (Rattus norvegicus, UniProt Q05941). In words: Inhibition of rat alpha7 nAChR expressed in Stage V-VI Xenopus laevis Oocytes assessed as inhibition of acetylcholine-induced current in presence of acetylcholine by electrophysiological recording. In kind it is cell-based, Oocyte.
In experiment [12] the target is Nicotinic acetylcholine receptor alpha9/alpha10 (Rattus norvegicus, UniProt P43144+Q9JLB5). Kind of experiment: Inhibition of rat alpha9/alpha10 nAChR expressed in Stage V-VI Xenopus laevis Oocytes assessed as inhibition of acetylcholine-induced current in presence of acetylcholine by electrophysiological recording. Format: cell-based, Oocyte.
Experiment [13] has as its target Nicotinic acetylcholine receptor alpha6/alpha3/beta2/beta3 (Rattus norvegicus, UniProt P04757+P12390+P12391+P43143). In words: Inhibition of rat alpha6/alpha3beta2beta3 nAChR expressed in Stage V-VI Xenopus laevis Oocytes assessed as inhibition of acetylcholine-induced current in presence of acetylcholine by electrophysiological recording. Format: cell-based, Oocyte.

In experiment [14] the target is Nicotinic acetylcholine receptor alpha1/beta1/epsilon/delta (Mus musculus, UniProt P02716+P04756+P09690+P20782). In words: Inhibition of mouse alpha1/beta1deltaepsilon nAChR expressed in Stage V-VI Xenopus laevis Oocytes assessed as inhibition of acetylcholine-induced current in presence of acetylcholine by electrophysiological recording. In kind it is cell-based, Oocyte.

For experiment [15], the target named is Neuronal acetylcholine receptor; alpha2/beta2 (Rattus norvegicus) (UniProt P12389+P12390). Kind of experiment: Inhibition of rat alpha2/beta2 nAChR expressed in Stage V-VI Xenopus laevis Oocytes assessed as inhibition of acetylcholine-induced current at 10 uM in presence of acetylcholine by electrophysiological recording relative to control. In kind it is cell-based. The conditions noted are these: Oocyte.

Experiment [16] deals with Neuronal acetylcholine receptor; alpha2/beta4 (Rattus norvegicus) (UniProt P12389+P12392). In words: Inhibition of rat alpha2/beta4 nAChR expressed in Stage V-VI Xenopus laevis Oocytes assessed as inhibition of acetylcholine-induced current at 10 uM in presence of acetylcholine by electrophysiological recording relative to control. Particulars: Oocyte. Format: cell-based.

Experiment [17] addresses Neuronal acetylcholine receptor; alpha3/beta2 (Rattus norvegicus) (UniProt P04757+P12390). In words: Inhibition of rat alpha3/beta2 nAChR expressed in Stage V-VI Xenopus laevis Oocytes assessed as inhibition of acetylcholine-induced current at 10 uM in presence of acetylcholine by electrophysiological recording relative to control. Format: cell-based. Particulars: Oocyte.

The target of experiment [18] is Neuronal acetylcholine receptor; alpha3/beta4 (Rattus norvegicus) (UniProt P04757+P12392). In words: Inhibition of rat alpha3/beta4 nAChR expressed in Stage V-VI Xenopus laevis Oocytes assessed as inhibition of acetylcholine-induced current at 10 uM in presence of acetylcholine by electrophysiological recording relative to control. Format: cell-based. Particulars: Oocyte.

The target of experiment [19] is Neuronal acetylcholine receptor; alpha4/beta2 (Rattus norvegicus) (UniProt P09483+P12390). In words: Inhibition of rat alpha4/beta2 nAChR expressed in Stage V-VI Xenopus laevis Oocytes assessed as inhibition of acetylcholine-induced current at 10 uM in presence of acetylcholine by electrophysiological recording relative to control. In kind it is cell-based. The conditions noted are these: Oocyte.

The target in experiment [20] is Neuronal acetylcholine receptor; alpha4/beta4 (Rattus norvegicus) (UniProt P09483+P12392). In words: Inhibition of rat alpha4/beta4 nAChR expressed in Stage V-VI Xenopus laevis Oocytes assessed as inhibition of acetylcholine-induced current at 10 uM in presence of acetylcholine by electrophysiological recording relative to control. The conditions noted are these: Oocyte. Format: cell-based.

For experiment [21], the target named is Neuronal acetylcholine receptor subunit alpha-7 (Rattus norvegicus) (UniProt Q05941). In words: Inhibition of rat alpha7 nAChR expressed in Stage V-VI Xenopus laevis Oocytes assessed as inhibition of acetylcholine-induced current at 10 uM in presence of acetylcholine by electrophysiological recording relative to control. Particulars: Oocyte. In kind it is cell-based.
Sequence of Neuronal acetylcholine receptor subunit alpha-7 (Rattus norvegicus) (Q05941 whole entry): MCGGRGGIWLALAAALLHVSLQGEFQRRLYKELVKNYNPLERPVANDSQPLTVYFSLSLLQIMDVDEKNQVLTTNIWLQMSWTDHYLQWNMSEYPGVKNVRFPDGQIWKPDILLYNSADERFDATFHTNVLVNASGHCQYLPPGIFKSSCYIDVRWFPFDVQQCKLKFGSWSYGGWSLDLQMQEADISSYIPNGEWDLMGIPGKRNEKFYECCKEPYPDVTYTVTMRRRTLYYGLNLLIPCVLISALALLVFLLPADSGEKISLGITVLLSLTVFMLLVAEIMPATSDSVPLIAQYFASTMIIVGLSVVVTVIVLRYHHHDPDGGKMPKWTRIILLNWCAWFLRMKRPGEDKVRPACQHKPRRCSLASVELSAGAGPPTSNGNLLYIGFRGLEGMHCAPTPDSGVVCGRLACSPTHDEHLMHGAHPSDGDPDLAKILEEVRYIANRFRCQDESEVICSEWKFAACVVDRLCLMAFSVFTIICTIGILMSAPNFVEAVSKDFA

Experiment [22] concerns the target Nicotinic acetylcholine receptor alpha9/alpha10 (Rattus norvegicus) (UniProt P43144+Q9JLB5). Kind of experiment: Inhibition of rat alpha9/alpha10 nAChR expressed in Stage V-VI Xenopus laevis Oocytes assessed as inhibition of acetylcholine-induced current at 10 uM in presence of acetylcholine by electrophysiological recording relative to control. Format: cell-based. The conditions noted are these: Oocyte.

In experiment [23] the target is Nicotinic acetylcholine receptor alpha6/alpha3/beta2/beta3 (Rattus norvegicus) (UniProt P04757+P12390+P12391+P43143). Kind of experiment: Inhibition of rat alpha6/alpha3beta2beta3 nAChR expressed in Stage V-VI Xenopus laevis Oocytes assessed as inhibition of acetylcholine-induced current at 10 uM in presence of acetylcholine by electrophysiological recording relative to control. Format: cell-based. The conditions noted are these: Oocyte.

For experiment [24], the target named is Nicotinic acetylcholine receptor alpha1/beta1/epsilon/delta (Mus musculus) (UniProt P04756+P09690+P02716+P20782). Kind of experiment: Inhibition of mouse alpha1/beta1deltaepsilon nAChR expressed in Stage V-VI Xenopus laevis Oocytes assessed as inhibition of acetylcholine-induced current at 10 uM in presence of acetylcholine by electrophysiological recording relative to control. In kind it is cell-based. Particulars: Oocyte.

pIC50: −log10 of the molar value. Numbered stars: 1 amine (or outer) side, 2 acyl side, 3 side chain; on linkers, the order of the positions; unused ones are H or OH. Bridge positions count the residues as written; N and C are the ends. Square brackets hold non-standard residues; d marks the D form. Side chains are listed from the residue outwards. Peptide text beside a SMILES is read from it. ξ: configuration not given here. ξPro(4ξ-NH2) = O=C(C1CC(N[*:3])CN1[*:1])[*:2]; ξpGlu = O=C1CCC(C(=O)O)N1

T1 sequence (P04757 whole entry): as the sequence (P04757 whole entry) above
T1 sequence (P12392 whole entry): as the sequence (P12392 whole entry) above
T1 sequence (P43143 whole entry): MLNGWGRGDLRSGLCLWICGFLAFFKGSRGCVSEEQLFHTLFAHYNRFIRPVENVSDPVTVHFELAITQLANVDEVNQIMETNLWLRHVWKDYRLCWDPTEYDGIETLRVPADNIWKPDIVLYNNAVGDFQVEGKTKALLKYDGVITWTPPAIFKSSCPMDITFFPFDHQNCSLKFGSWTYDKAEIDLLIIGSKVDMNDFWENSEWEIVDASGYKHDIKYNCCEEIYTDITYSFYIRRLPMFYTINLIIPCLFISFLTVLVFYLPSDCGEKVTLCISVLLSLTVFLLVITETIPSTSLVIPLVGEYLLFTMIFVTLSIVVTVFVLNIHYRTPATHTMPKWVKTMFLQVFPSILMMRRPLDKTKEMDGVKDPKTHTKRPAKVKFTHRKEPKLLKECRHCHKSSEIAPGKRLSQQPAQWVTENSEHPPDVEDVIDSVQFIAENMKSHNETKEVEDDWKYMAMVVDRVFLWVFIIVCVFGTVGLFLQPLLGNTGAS
Sequence of Nicotinic acetylcholine receptor alpha6/alpha3/beta2/beta3 (P04757 whole entry): as the sequence (P04757 whole entry) above
Sequence of Nicotinic acetylcholine receptor alpha6/alpha3/beta2/beta3 (P12390 whole entry): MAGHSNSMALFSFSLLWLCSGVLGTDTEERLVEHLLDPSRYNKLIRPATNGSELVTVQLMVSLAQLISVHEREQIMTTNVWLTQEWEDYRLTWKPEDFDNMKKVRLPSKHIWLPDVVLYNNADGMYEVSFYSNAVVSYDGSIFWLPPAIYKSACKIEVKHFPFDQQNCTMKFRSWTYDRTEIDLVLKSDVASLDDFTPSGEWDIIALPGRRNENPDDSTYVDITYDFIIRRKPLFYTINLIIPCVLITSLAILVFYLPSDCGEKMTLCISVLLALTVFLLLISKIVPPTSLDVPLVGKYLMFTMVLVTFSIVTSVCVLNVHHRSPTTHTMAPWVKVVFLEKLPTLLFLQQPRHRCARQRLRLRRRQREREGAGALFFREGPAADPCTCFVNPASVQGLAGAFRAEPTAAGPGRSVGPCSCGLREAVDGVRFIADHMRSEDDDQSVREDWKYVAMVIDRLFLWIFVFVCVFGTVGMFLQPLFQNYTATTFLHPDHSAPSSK
Sequence of Nicotinic acetylcholine receptor alpha6/alpha3/beta2/beta3 (P12391 whole entry): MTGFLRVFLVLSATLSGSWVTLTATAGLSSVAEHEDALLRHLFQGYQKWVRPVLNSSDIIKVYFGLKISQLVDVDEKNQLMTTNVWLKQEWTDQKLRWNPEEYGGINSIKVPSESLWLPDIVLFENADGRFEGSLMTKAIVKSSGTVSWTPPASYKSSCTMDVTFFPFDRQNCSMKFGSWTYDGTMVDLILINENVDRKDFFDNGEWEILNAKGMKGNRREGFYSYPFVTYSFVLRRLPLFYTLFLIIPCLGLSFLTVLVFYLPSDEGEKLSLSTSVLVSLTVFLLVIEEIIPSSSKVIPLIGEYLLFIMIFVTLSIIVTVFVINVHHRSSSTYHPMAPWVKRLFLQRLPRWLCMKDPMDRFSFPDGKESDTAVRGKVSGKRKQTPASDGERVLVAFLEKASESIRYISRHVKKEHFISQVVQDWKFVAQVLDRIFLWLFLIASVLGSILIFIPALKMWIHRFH
Sequence of Nicotinic acetylcholine receptor alpha6/alpha3/beta2/beta3 (P43143 whole entry): as the sequence (P43143 whole entry) above

By pIC50 is commonly meant the negative decadic logarithm of the IC50, by convention in mol/L. With `CC(C)[C@H](NC(=O)[C@H](Cc1cnc[nH]1)NC(=O)[C@H](CCCCN)NC(=O)[C@H](CS)NC(=O)[C@@H]1CCCN1C(=O)[C@@H]1CCCN1C(=O)[C@H](CC(N)=O)NC(=O)[C@H](C)NC(=O)[C@H](CS)NC(=O)[C@H](CS)NC(=O)C1CCC(=O)N1)C(=O)N[C@@H](CC(N)=O)C(=O)N[C@@H](CS)C(=O)N[C@@H](CCCNC(=N)N)C(N)=O` (stereo not given in full) ([ξpGlu]CCANPPCKHVNCR-NH2), the pIC50 in experiment [1] is 7.09. Further, the TIME in [2] came to 0.15 h.

Regarding `CC(C)[C@H](NC(=O)[C@@H]1CCCN1C(=O)[C@H](CC(N)=O)NC(=O)[C@H](C)NC(=O)[C@H](CS)NC(=O)[C@H](CS)NC(=O)CN)C(=O)N[C@@H](CS)C(=O)N[C@@H](CC(N)=O)C(=O)NCC(=O)N[C@@H](C)C(=O)N[C@@H](Cc1cnc[nH]1)C(=O)N[C@@H](CS)C(N)=O` (H-GCCANPVCNGAHC-NH2), the pIC50 in experiment [1] is 7.14. Further, the TIME in experiment [2] amounted to 0.217 h.

In the case of `CC(C)C[C@H](NC(=O)[C@@H](NC(=O)[C@H](C)NC(=O)[C@H](CS)NC(=O)[C@@H]1CCCN1C(=O)[C@@H]1CCC(=O)N1C(=O)[C@H](C)NC(=O)[C@H](CO)NC(=O)[C@H](CS)NC(=O)[C@H](CS)NC(=O)CN)C(C)C)C(=O)N[C@@H](Cc1ccc(O)cc1)C(=O)N[C@@H](CS)C(N)=O`, the pIC50 in experiment [3] was 7.24. For the same molecule, the Ratio in [4] worked out at 20.

The inhibition is the drop in the measured response relative to a control, in per cent. For `CC(C)[C@@H]1NC(=O)[C@@H]2CCCN2C(=O)[C@H](CC(N)=O)NC(=O)[C@H](C)NC(=O)[C@@H]2CSSC[C@@H](C(=O)N[C@@H](CCC(N)=O)C(=O)O)NC(=O)[C@H](Cc3cnc[nH]3)NC(=O)[C@H](CCCCN)NC(=O)CNC(=O)[C@H](CC(N)=O)NC(=O)[C@H](CSSC[C@H](NC(=O)[C@@H](N)CC(=O)O)C(=O)N2)NC1=O` (H-DCCANPVCNGKHCQ-OH; disulfide 2-8, 3-13), the pIC50 in experiment [5], in experiment [6], in experiment [7], in experiment [8], in [9] and in experiment [10] was less than 5.00 throughout. In addition, the pIC50 was less than 5.00 in experiment [11]; less than 5.00 in [12]; less than 5.00 in experiment [13]; 5.48 in experiment [1]; less than 5.00 in experiment [14]. Further, the inhibition in experiment [15], in experiment [16], in [17], in experiment [18], in experiment [19] and in experiment [20] was less than 50% in each case. Moreover, the inhibition in experiment [21], in experiment [22], in experiment [23] and in experiment [24] was less than 50% in each case.

Take `CC(C)[C@H](NC(=O)[C@@H]1CCCN1C(=O)[C@H](CC(N)=O)NC(=O)[C@H](C)NC(=O)[C@H](CS)NC(=O)[C@H](CS)NC(=O)[C@@H](N)CC(=O)O)C(=O)N[C@@H](CS)C(=O)N[C@@H](CC(N)=O)C(=O)NCC(=O)N[C@@H](CCCCN)C(=O)N[C@@H](Cc1cnc[nH]1)C(=O)N[C@@H](CS)C(N)=O` (H-DCCANPVCNGKHC-NH2): the pIC50 in [5], in experiment [6], in [7], in [8], in experiment [9] and in experiment [10] was less than 5.00 in each case. Also, the pIC50 was less than 5.00 in [11]; less than 5.00 in [12]; less than 5.00 in experiment [13]; 6.51 in experiment [1]; less than 5.00 in experiment [14]. The inhibition in experiment [15], in experiment [16], in experiment [17], in experiment [18], in experiment [19] and in experiment [20] was less than 50% throughout. Moreover, the inhibition in experiment [21], in experiment [22], in [23] and in experiment [24] was less than 50% in each case.

With `CC(C)[C@H](NC(=O)[C@H](CS)NC(=O)[C@H](C)NC(=O)[C@@H]1CCCN1C(=O)[C@H](CC(N)=O)NC(=O)[C@H](Cc1c[nH]c2ccccc12)NC(=O)[C@H](CS)NC(=O)[C@H](CS)NC(=O)CNC(=O)C1CC(NC(=O)[C@H](CO)NC(=O)C2CCC(=O)N2)CN1)C(=O)N[C@@H](CCCCN)C(=O)N[C@@H](CC(N)=O)C(=O)N[C@@H](CCCNC(=N)N)C(=O)N[C@@H](CS)C(N)=O` (stereo not given in full) (H-[ξPro(4ξ-NH2)]([Ser-ξpGlu])GCCWNPACVKNRC-NH2), the pIC50 in experiment [1] was 7.03. Further, the TIME in [2] came to 0.05 h.

The values above are taken from ChEMBL document CHEMBL5316324, “Discovery, Characterization, and Engineering of LvIC, an α4/4-Conotoxin That Selectively Blocks Rat α6/α3β4 Nicotinic Acetylcholine Receptors” (J Med Chem, 2023).
